Measured values as given in US20050038093A1, “Treating diabetic retinopathy with angiotensin II receptor blockers” (Boehringer Ingelheim International GmbH, priority 2003, published 2005).

Legend:
[1] = IDNT study (Lewis et al, 2001); cited from earlier work
[2] = EUCLID study, cited from earlier work
[3] = system: pericytes isolated from bovine retina; experiment: Measurement of reactive oxygen species in pericytes; format: cell-based; details: for inhibition of angiotensin II-induced increase in the generation of reactive oxygen species in pericytes: 10^-7 M telmisartan, 10^-7 or 10^-6 M angiotensin II
Experimental: (§1) Pericytes were isolated from bovine retina and maintained in Dulbecco's Eagle's medium supplemented with 20% of fetal bovine serum (FBS) as described in Yamagishi et al, Circulation 87:1969, 1993.
Angiotensin II treatment was carried out in medium containing 2% FBS. Pericytes were treated with or without 10^−7 or 10^−6 M angiotensin II in the presence or absence of 10^−7 M telmisartan for 24 hours. Then the intracellular formation of reactive oxygen species was detected as described in Yamagishi et al, A J Biol Chem 276:25096, 2001 by using the fluorescent probe CM-H2DCFDA (Molecular Probes Inc, Eugene, Oreg.).

[4] = system: pericytes; experiment: Measurement of [3H]thymidine incorporation in pericytes; format: cell-based, bovine; details: 10^-7 M angiotensin, 24 hours
Experimental: as §1
Pericytes were treated with or without 10^−7 M angiotensin in the presence or absence of 1 mM N-acetylcystein (NAC) for 24 hours, and then [^3H]thymidine incorporation in cells was determined as described in Yamagishi et al, FEBS Lett 384:103, 1996.

[5] = system: PDGF-B mRNA; experiment: Quantitative reverse transcription PCR of PDGF-B mRNA in cultured retinal pericytes; format: cell-based, bovine; details: 10^-7 M angiotensin II, 4 hours; for inhibition of angiotensin II induced up-regulation of PDGF mRNA levels: 10^-7 M telmisartan or 1 mM NAC
Experimental: To investigate the effects of angiotensin II on PDGF-B gene expression in cultured retinal pericytes, poly(A)^+ RNAs were isolated from cells treated with or without 10^−7 M angiotensin II in the presence or absence of 10^−7 M telmisartan or 1 mM NAC for 4 hours, and analyzed by RT-PCR as described in Yamagishi et al, Kidney Int 63:464, 2003. The amounts of poly(A)^+ RNA templates (about 30 ng) and cell cycle numbers for amplification (28 cycles for PDGF-B gene and 22 cycles for β-actin gene) were chosen in quantitative ranges were reactions proceeded linearly, which had been determined by plotting signal intensities as functions of the template amounts and cell cycle numbers as described in Yamagishi et al, J Biol Chem 277:20309, 2002. Sequences of primers for detecting bovine β-actin mRNAs were the same as described in Okamoto et al, FASEB J 16:1928, 2002.

[6] = system: VEGF mRNA; experiment: Quantitative reverse transcription PCR of VEGF mRNA in pericytes; format: cell-based, bovine; details: 10^-7 M angiotensin II, 4 hours; for inhibition of angiotensin II-induced up-regulation of VEGF mRNA levels in pericytes: 10^-7 M telmisartan or 1 mM NAC
Experimental: Sequences and primers for detecting VEGF and β-actin mRNAs are described in Yamagishi et al, J Biol Chem 272:8723, 1997.
Poly(A)^+ RNAs were isolated from cells treated with or without 10^−7 M angiotensin II in the presence or absence of 10^−7 M telmisartan or 1 mM NAC for 4 hours, and analyzed by quantitative reverse transcription PCR (RT-PCR) as described in Yamagishi et al, Diabetologia 41:1435, 1998. The amounts of poly(A)^+ RNA templates (about 30 ng) and cell cycle numbers for amplification (28 cycles for VEGF gene and 22 cycles for β-actin gene) were chosen in quantitative ranges were reactions proceeded linearly, which had been determined by plotting signal intensities as functions of the template amounts and cell cycle numbers as described in Yamagishi et al, J Biol Chem 277:20309, 2002.
It has been reported that there exist five alternatively spliced products from the single VEGF gene. They are designated as VEGF121, VEGF145, VEGF165 VEGF189, and VEGF206. Since Northern blot analysis can not clearly discriminate these five mRNA products, we employed a more sensitive semi-quantitative RT-PCR technique as described in Okamoto et al, FASEB J 16:1928, 2002. In these experiments, cDNA products of 486 and 618 base pairs length are amplified from mRNAs for VEGF121 and VEGF165, respectively. […] The VEGF mRNA level was about 1.5 fold higher than the basal level when exposed to 10^−7 M angiotensin II.

CCCCC1=NC2(CCCC2)C(=O)N1Cc1ccc(-c2ccccc2-c2nnn[nH]2)cc1 [irbesartan]
protection against the progression of nephropathy due to type II diabetes [1]: effective

NCCCC[C@H](N[C@@H](CCc1ccccc1)C(=O)O)C(=O)N1CCC[C@H]1C(=O)O [lisinopril]
risk of progression to proliferative retinopathy [2]: significantly reduced | reduction of the risk of progression of retinopathy ([2]; retinopathy not a primary endpoint): approximately 50%

angiotensin II (DRVYIHPF; Angiotensin-2; UniProt P01019 25-32, looked up) [stimulus used on pericytes]
increase of intracellular generation of reactive oxygen species ([3]; 10^-6 M angiotensin II, 24 hours, medium with 2% FBS): about 1.3 fold | effect on DNA synthesis in pericytes ([3H]thymidine incorporation) [4]: significantly inhibited | PDGF-B mRNA level relative to basal level [5]: about 5 fold | VEGF mRNA level relative to basal level [6]: about 1.5 fold

CCCc1nc2c(C)cc(-c3nc4ccccc4n3C)cc2n1Cc1ccc(-c2ccccc2C(=O)O)cc1 [telmisartan]
effect of compound alone on generation of reactive oxygen species ([3]; 10^-7 M telmisartan without angiotensin II, 24 hours): did not affect | inhibition of angiotensin II-induced increase in the generation of reactive oxygen species in pericytes ([3]; 24 hours): inhibit | inhibition of angiotensin II-induced increase in the generation of reactive oxygen species in pericytes ([3]; 24 hours, listed as Telmisartan): completely inhibit | inhibition of angiotensin II induced up-regulation of PDGF mRNA levels [5]: significantly inhibit | inhibition of angiotensin II-induced up-regulation of VEGF mRNA levels in pericytes [6]: completely inhibit

CC(=O)N[C@@H](CS)C(=O)O [NAC, N-acetylcystein]
reversal of angiotensin II-induced increase in generation of reactive oxygen species by antioxidant ([3]; added during treatment of pericytes with angiotensin II): reverses the increase | prevention of angiotensin II-induced decrease in DNA synthesis in pericytes ([4]; 1 mM NAC): significantly prevented | inhibition of angiotensin II induced up-regulation of PDGF mRNA levels [5]: significantly inhibit | inhibition of angiotensin II-induced up-regulation of VEGF mRNA levels in pericytes [6]: completely inhibit
